Measured values taken from EP1113726B1, “USE OF NEOHESPERIDIN DIHYDROCHALCONE FOR THE MANUFACTURE OF A MEDICAMENT FOR PREVENTING OR TREATING ELEVATED BLOOD LIPID LEVEL-RELATED DISEASES” (Korea Research Institute of Bioscience and Biotechnology, priority 1998, dated 2000).

Key:
HMG-CoA reductase = target: T1, HMG-CoA reductase (Rattus norvegicus, UniProt P51639); assay: HMG-CoA reductase activity assay (modified Hulcher's method) on liver microsomes of the diet-fed rats; assay type: biochemical; conditions: ex vivo: liver microsomes of rats fed 1 % cholesterol plus 0.05 % neohesperidin dihydrochalcone for six weeks, versus Control group
T1 construct: the supernatant was ultracentrifuged at 100,000xg for 60 minutes to obtain microsomal precipitates; from tissue; host or cells: rat liver microsomes
T1 sequence (P51639 1-887): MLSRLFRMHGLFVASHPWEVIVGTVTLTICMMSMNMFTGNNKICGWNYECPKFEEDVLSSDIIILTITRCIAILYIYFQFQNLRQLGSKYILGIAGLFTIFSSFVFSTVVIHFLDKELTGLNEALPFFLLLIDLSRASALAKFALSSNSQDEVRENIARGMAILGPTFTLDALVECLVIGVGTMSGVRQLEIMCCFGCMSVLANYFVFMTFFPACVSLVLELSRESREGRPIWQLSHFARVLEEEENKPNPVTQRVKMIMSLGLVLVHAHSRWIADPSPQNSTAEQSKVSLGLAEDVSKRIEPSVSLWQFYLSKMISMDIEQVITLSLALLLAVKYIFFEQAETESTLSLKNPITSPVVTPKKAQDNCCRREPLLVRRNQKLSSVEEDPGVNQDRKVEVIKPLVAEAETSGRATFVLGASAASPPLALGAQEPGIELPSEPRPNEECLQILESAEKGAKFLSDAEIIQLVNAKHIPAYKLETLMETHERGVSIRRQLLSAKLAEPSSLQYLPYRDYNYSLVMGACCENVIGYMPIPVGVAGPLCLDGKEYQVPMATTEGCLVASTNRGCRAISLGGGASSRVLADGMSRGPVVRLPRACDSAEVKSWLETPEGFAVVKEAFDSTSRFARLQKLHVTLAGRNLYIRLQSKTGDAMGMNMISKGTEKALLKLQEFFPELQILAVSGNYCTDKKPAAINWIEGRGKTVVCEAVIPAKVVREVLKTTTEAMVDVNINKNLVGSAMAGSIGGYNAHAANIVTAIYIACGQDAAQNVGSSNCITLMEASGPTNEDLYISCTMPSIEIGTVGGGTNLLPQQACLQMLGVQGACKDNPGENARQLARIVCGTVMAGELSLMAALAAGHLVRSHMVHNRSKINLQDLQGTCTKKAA
Experimental: In order to determine the activity of HMG-CoA reductase, Hulcher's method was employed after some modification (see J. Lipid Res., 14, 625-641(1973)). In this method, the concentration of the coenzyme-A(CoA-SH), which is produced when HMG-CoA is reduced to a mevalonate salt by the action of HMG-CoA reductase, is determined by spectroscopy and the activity of HMG-GoA reductase is calculated therefrom.
3 g of liver tissue taken from each group of rats of Example 2 was washed succesively with 100 ml of a cold-saline(0.15M NaCl) and 100ml of a cold buffer solution A(0.1M triethanolamine, HCl/0.2M EDTA/2mM dithiothreitol(DTT)). The cold buffer solution A was added to the liver tissue in an amount of 2 ml per 1 g of the liver tissue and the mixture was homogenized with a homogenizer. The homogenate was centrifuged at 15,000xg for 15 minutes, and then, the supernatant was ultracentrifuged at 100,000xg for 60 minutes to obtain microsomal precipitates. […]
Then, the reactant was mixed with 20µl of DTNB buffer solution(3mM DTNH/0.1M triethanolamine/0.2M EDTA, pH 7.4) and the absorbance of the mixture was determined at 412nm to calculate the amount of CoA-SH(activity of HMG-CoA reductase).
The extent of inhibition of HMG-CoA reductase activity by neohesperidin dihydrochalcone was calculated based on the above result.

[1] = system: New Zealand White rabbits; assay: Microscopic grading of abnormal fat-containing cells in the liver of cholesterol-fed rabbits (fatty liver); assay type: in vivo; conditions: 1 % cholesterol diet for 6 weeks plus 1 mg/kg Lovastatin or 0.05 % neohesperidin dihydrochalcone
Experimental: 30 three-month-old New Zealand White rabbits(Yeonam Horticulture and Animal Husbandry College, Korea), each weighing about 2.5 to 2.6 kg, were raised under a condition of temperature 20±2°C, relative humidity 55±5 %, and photoperiod 12L/12D. The rabbits were divided into 3 groups and 3 groups of rabbits were fed with 3 different diets, i.e., RC4 diet(Oriental Yeast Co., Japan) containing 1 % cholesterol(Control group); 1 % cholesterol plus 1 mg/kg Lovastatin®(Merck, U.S.A.)(Lovastatin group); and 1 % cholesterol plus 0.05 % neohesperidin dihydrochalcone(Neohesperidin dihydrochalcone group), respectively. RC4 diet comprises 7.6 % moisture, 22.8 % crude protein, 2.8 % crude fat, 8.8 % crude ash, 14.4 % crude cellulose and 43.6 % soluble nitrogen-free substances. Neohesperidin dihydrochalcone was purchased from Sigma Chemical Co.(St. Louis, MO).
The rabbits were fed for 6 weeks while being allowed free access to the diets and water.
In order to evaluate the effects of feeding a high cholesterol diet with neohesperidin dihydrochalcone on liver tissues, the liver specimens taken from the sacrificed rabbit in Step 2 of Example 6 were treated in accordance with the procedure disclosed in Fogt F. and Nanji A., Toxicology and Applied Pharmacology, 136, 87-93, 1996; and Keegan A., et al., Journal of Hepatology 23: 591-600, 1995, and observed under a microscope to be classified into four grades, i.e., 1+(0-25%), 2+(26-50%), 3+(51-75), 4+(76-100%) based on the proportion of abnormal fat-containing cells around the central vein in the liver acinus.
Figs. 2A, 2B and 2C present the microscopic features of the livers of the rabbits administered with 1% cholesterol; 1% cholesterol plus 1 mg/kg Lovastatin®; 1% and cholesterol plus 0.05% neohesperidin dihydrochalcone, respectively.

Sprague-Dawley rats = assay: Plasma total cholesterol, HDL-cholesterol and neutral lipid levels in rats fed a high-cholesterol diet; conditions: 1 % cholesterol diet plus 0.05 % neohesperidin dihydrochalcone, six weeks

SMILES: COc1ccc(CCC(=O)c2c(O)cc(O[C@@H]3O[C@H](CO)[C@@H](O)[C@H](O)[C@H]3O[C@@H]3O[C@@H](C)[C@H](O)[C@@H](O)[C@H]3O)cc2O)cc1O [Neohesperidin dihydrochalcone]
- Inhibition of HMG-CoA reductase activity (%) (HMG-CoA reductase): 30%
- B: Proportion of abnormal fat-containing cells ([1]; rabbit liver, cells around the central vein, mean of grades 1+ to 4+): 2.7 (±0.3)
- microscopic features of the liver (Figs. 2B, 2C) ([1]; rabbits): almost all liver cells are of a normal shape
- (HDL-C)/(Total-C (%)) (Sprague-Dawley rats): 16%
- neutral lipid content reduced, as compared with Control group (Sprague-Dawley rats): 9%
- total plasma cholesterol level reduced, as compared with Control group (Sprague-Dawley rats): 15%
- HDL-C (Sprague-Dawley rats; n=10): 19 ± 3 mg/dL
- TG (Sprague-Dawley rats; n=10): 52 ± 8 mg/dL
- Total-C (Sprague-Dawley rats; n=10): 115 ± 10 mg/dL
